The structures appear in SMILES notation. Where two headings read alike, the source gives them in different places.

Assay in all cases: Radiometric protein kinase assay (33PanQinase Activity Assay)
Common to all, as to assay type: biochemical

The target of one test is T1, VEGF-R2 (Homo sapiens, UniProt P35968).
T1 construct: made in house; host or cells: Sf9 insect cells, baculovirus
The source says: (§1) AKTI1, ARK5, Aurora-A, Aurora-B, B-RAF-VE, CDK2/CycA, CDK4/CycD1, CK2-alpha1 (catalytic subunit of CK2), EGF-R, EPHB4, ERBB2, FAK, IGF1-R, SRC, VEGF-R2, VEGF-R3, FLT3, INS-R, MET, PDGFR-beta, PLK1, SAK, TIE2, COT.
(§2) All the protein kinases were expressed in Sf9 insect cells as human recombinant GST fusion proteins or His-tagged proteins by the baculovirus expression system. Kinases were purified by affinity chromatography either by GSH-agarose (Sigma) or Ni—NTH-agarose (Qiagen). The purity of the kinases was tested by SDS-PAGE/silver staining, and the identity of the kinases was verified by Western blot analysis with specific antibodies or mass spectroscopy.
(§3) A radiometric protein kinase assay (33PanQinase® Activity Assay) was used to measure the kinase activity for the 24 protein kinases. The kinase assays were carried out in 96-well FlashPlates™ from Perkin Elmer/NEN (Boston, Mass., USA) in a reaction volume of 50 μl. The reaction mixture was pipetted in 4 steps in the following sequence: • 20 μl of assay buffer • 5 μl of ATP solution (in H2O) • 5 μl of test compound (in 10% DMSO) • 10 μl of substrate/10 μl of enzyme solution (premixed)
(§4) The assays for all the enzymes contained 60 mM HEPES-NaOH, pH 7.5, 3 mM MgCl2, 3 mM MnCl2, 3 μM Na orthovanadate, 1.2 mM DTT, 50 μg/ml PEG20000, 1 μM [γ-^33P]-ATP (about 5×10^5 cpm per well).
(§5) The reaction mixture was incubated at 30° C. for 80 minutes. The reaction was stopped with 50 μl of 2% (v/v) H3PO4. The plates were aspirated and washed twice with 200 μl of 0.9% (w/v) NaCl. The incorporation of ^33Pi was determined using a microtiter plates scintillation counter (Microbeta Trilux, Wallac).

The next test concerns the target T2, VEGF-R3 (Homo sapiens, UniProt P35916).
T2 construct: made in house; host or cells: Sf9 insect cells, baculovirus
Description: as §1, §2, §3, §4, §5

Another test addresses T3, COT (Homo sapiens, UniProt P41279).
T3 construct: made in house; host or cells: Sf9 insect cells (baculovirus)
Description: as §1, §2, §3, §4, §5

In another test the target is T4, PLK1 (Homo sapiens, UniProt P53350).
T4 construct: made in house; host or cells: Sf9 insect cells, baculovirus
Description: as §1, §2, §3, §4, §5

A further test addresses T5, Aurora-A (Homo sapiens, UniProt O14965).
T5 construct: made in house; host or cells: Sf9 insect cells, baculovirus
T5 sequence (O14965 1-403): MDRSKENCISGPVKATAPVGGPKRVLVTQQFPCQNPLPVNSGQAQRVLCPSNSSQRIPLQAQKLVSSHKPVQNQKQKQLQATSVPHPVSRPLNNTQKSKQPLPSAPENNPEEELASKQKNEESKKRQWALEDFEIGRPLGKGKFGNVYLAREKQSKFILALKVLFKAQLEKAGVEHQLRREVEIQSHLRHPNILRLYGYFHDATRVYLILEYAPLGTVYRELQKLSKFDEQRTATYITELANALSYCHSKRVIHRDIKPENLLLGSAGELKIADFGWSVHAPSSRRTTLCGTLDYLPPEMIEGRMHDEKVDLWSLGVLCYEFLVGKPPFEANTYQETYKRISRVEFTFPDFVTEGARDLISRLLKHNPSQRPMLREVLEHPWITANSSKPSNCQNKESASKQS
Description: as §1, §2, §3, §4, §5

In another test the target is T6, MET (Homo sapiens, UniProt P08581).
T6 construct: made in house; host or cells: Sf9 insect cells, baculovirus
Description: as §1, §2, §3, §4, §5

Another test addresses T7, SAK (Homo sapiens, UniProt O00444).
T7 construct: made in house; host or cells: Sf9 insect cells, baculovirus
T7 sequence (O00444 1-970): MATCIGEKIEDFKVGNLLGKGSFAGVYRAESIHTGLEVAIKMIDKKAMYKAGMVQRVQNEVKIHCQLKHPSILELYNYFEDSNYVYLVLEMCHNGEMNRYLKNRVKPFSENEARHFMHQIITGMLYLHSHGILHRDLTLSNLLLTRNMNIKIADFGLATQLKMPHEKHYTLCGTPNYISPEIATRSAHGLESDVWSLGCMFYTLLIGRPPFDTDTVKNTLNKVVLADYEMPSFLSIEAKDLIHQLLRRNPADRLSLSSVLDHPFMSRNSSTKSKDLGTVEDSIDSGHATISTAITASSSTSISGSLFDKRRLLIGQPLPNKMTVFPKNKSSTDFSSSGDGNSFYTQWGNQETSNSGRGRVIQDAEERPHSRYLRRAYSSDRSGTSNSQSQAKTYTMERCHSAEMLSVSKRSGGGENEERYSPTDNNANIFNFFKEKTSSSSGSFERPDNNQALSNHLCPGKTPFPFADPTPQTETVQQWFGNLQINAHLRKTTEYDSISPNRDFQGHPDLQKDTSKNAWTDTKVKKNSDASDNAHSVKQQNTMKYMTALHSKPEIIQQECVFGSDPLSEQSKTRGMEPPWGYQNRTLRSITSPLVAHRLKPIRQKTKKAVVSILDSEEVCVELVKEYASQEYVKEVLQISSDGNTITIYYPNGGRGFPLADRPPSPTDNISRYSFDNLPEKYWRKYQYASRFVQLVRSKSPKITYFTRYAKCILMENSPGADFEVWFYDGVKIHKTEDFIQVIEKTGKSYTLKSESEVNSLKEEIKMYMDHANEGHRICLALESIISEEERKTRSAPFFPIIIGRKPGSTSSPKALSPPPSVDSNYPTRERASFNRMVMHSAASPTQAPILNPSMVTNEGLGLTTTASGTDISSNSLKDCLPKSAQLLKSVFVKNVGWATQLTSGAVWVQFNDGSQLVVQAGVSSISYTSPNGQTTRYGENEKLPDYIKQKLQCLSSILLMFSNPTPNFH
Description: as §1, §2, §3, §4, §5

In a further test the target is T8, AKT1 (Homo sapiens, UniProt P31749).
T8 construct: made in house; host or cells: Sf9 insect cells, baculovirus
Description: as §1, §2, §3, §4, §5

In the next test the target is T9, FAK (Homo sapiens, UniProt Q05397).
T9 construct: made in house; host or cells: Sf9 insect cells, baculovirus
Description: as §1, §2, §3, §4, §5

For another test, the target named is T10, INS-R (Homo sapiens, UniProt P06213).
T10 construct: made in house; host or cells: Sf9 insect cells, baculovirus
Description: as §1, §2, §3, §4, §5

Where [1] appears, read: 1 μM ATP, read-out: IC50 values [μM] VEGF-R2.
The mark [2] stands for this setting: 1 μM ATP, read-out: IC50 values [μM] VEGF-R3.
Where [3] appears, read: 1 μM ATP, autophosphorylation, read-out: IC50 values [μM] COT.
The mark [4] stands for this setting: 1 μM ATP, read-out: IC50 values [μM] PLK1.
The mark [5] stands for this setting: 1 μM ATP, read-out: IC50 values [μM] Aurora-A.
Setting [6] is: 1 μM ATP, read-out: IC50 values [μM] MET.
Where [7] appears, read: 1 μM ATP, read-out: IC50 values [μM] SAK.
Setting [8] is: 1 μM ATP, read-out: IC50 values [μM] AKT1.
Where [9] appears, read: 1 μM ATP, read-out: IC50 values [μM] FAK.
Where [10] appears, read: 1 μM ATP, read-out: IC50 values [μM] INS-R.

T4 sequence (P53350 whole entry): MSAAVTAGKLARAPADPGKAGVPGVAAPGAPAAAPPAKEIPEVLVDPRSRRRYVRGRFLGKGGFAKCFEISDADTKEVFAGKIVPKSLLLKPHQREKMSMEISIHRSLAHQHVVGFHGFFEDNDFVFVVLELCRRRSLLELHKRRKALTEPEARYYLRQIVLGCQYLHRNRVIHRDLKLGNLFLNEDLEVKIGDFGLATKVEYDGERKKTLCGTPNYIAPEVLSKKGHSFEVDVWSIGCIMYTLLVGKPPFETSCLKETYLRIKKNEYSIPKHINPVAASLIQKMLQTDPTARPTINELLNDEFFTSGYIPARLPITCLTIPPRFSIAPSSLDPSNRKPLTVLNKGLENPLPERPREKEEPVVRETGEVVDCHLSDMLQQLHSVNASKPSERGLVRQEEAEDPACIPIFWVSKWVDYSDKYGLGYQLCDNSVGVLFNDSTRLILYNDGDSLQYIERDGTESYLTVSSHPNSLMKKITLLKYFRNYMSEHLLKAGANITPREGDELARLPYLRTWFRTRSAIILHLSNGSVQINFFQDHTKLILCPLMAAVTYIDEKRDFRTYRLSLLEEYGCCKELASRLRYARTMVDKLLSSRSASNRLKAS
T1 sequence (P35968 20-1356): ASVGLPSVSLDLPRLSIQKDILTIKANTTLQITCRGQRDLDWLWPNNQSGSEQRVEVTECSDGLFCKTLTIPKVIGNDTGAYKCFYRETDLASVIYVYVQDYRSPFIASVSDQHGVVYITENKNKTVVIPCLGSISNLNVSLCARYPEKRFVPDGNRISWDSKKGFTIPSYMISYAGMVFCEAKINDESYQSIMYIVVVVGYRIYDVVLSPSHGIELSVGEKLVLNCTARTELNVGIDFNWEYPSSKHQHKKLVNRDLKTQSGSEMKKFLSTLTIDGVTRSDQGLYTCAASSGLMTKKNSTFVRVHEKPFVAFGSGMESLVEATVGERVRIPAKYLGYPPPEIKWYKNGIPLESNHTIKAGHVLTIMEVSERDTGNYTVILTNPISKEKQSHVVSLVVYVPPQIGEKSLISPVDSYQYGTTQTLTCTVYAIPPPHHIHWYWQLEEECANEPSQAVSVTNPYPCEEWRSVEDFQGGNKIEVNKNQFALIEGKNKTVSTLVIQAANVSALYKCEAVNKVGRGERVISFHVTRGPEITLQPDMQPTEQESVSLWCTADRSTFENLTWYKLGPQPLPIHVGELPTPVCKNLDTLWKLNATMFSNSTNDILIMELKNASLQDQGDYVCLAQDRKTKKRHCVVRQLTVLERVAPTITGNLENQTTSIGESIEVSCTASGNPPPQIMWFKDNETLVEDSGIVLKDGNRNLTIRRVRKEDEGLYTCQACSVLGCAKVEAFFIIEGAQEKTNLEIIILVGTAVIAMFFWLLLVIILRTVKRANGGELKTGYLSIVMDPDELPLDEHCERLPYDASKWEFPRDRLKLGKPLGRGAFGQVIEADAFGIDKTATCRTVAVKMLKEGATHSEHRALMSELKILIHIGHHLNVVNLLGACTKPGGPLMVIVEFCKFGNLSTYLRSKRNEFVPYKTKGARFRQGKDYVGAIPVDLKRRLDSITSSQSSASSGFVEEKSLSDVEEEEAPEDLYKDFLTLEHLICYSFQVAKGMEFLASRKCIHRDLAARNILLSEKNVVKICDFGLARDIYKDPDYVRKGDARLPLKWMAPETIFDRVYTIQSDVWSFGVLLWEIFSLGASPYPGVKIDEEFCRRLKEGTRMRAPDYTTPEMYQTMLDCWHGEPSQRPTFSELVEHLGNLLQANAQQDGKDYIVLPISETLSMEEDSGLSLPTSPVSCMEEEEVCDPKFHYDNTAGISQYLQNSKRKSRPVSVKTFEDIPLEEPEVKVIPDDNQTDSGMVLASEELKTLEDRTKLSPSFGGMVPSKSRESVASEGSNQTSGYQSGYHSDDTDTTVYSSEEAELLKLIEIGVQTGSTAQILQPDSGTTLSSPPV
T9 sequence (Q05397 whole entry): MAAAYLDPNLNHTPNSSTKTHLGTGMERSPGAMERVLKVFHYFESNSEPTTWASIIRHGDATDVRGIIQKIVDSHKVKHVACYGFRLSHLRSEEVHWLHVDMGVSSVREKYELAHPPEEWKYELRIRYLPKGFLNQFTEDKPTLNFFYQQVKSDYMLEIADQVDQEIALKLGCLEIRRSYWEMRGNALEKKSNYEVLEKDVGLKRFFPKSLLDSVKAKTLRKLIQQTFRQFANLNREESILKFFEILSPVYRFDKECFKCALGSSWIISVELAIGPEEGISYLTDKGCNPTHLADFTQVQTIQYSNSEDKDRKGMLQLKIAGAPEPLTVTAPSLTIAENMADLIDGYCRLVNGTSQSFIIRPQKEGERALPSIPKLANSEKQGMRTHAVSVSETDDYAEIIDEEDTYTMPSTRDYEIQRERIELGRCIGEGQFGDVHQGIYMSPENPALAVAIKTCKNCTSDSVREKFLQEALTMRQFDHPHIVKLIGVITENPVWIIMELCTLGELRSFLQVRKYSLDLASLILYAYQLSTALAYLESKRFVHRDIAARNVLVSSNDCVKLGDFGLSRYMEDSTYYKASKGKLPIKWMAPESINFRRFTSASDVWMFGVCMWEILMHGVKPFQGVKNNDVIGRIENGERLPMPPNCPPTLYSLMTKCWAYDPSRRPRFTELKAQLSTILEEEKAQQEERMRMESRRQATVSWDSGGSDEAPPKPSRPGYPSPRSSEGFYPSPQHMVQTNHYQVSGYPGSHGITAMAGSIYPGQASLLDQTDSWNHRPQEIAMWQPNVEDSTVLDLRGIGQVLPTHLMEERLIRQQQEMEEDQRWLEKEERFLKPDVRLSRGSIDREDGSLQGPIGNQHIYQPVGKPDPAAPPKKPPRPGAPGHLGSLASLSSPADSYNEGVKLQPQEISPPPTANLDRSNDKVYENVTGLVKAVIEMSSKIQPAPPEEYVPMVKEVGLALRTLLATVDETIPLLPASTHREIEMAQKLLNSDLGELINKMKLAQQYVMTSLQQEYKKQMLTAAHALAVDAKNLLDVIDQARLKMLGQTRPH
T10 sequence (P06213 980-1382 limits assumed): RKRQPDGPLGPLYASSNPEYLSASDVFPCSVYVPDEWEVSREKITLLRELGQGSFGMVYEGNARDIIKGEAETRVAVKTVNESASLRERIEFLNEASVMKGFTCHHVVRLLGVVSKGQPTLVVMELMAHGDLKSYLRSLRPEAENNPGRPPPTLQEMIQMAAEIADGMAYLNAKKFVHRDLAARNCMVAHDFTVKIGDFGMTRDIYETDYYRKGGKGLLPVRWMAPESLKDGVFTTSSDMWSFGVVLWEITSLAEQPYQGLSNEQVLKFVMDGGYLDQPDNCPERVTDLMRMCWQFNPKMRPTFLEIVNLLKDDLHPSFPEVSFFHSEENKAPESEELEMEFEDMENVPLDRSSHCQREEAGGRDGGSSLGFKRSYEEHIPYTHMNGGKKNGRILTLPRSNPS
T6 sequence (P08581 25-1390): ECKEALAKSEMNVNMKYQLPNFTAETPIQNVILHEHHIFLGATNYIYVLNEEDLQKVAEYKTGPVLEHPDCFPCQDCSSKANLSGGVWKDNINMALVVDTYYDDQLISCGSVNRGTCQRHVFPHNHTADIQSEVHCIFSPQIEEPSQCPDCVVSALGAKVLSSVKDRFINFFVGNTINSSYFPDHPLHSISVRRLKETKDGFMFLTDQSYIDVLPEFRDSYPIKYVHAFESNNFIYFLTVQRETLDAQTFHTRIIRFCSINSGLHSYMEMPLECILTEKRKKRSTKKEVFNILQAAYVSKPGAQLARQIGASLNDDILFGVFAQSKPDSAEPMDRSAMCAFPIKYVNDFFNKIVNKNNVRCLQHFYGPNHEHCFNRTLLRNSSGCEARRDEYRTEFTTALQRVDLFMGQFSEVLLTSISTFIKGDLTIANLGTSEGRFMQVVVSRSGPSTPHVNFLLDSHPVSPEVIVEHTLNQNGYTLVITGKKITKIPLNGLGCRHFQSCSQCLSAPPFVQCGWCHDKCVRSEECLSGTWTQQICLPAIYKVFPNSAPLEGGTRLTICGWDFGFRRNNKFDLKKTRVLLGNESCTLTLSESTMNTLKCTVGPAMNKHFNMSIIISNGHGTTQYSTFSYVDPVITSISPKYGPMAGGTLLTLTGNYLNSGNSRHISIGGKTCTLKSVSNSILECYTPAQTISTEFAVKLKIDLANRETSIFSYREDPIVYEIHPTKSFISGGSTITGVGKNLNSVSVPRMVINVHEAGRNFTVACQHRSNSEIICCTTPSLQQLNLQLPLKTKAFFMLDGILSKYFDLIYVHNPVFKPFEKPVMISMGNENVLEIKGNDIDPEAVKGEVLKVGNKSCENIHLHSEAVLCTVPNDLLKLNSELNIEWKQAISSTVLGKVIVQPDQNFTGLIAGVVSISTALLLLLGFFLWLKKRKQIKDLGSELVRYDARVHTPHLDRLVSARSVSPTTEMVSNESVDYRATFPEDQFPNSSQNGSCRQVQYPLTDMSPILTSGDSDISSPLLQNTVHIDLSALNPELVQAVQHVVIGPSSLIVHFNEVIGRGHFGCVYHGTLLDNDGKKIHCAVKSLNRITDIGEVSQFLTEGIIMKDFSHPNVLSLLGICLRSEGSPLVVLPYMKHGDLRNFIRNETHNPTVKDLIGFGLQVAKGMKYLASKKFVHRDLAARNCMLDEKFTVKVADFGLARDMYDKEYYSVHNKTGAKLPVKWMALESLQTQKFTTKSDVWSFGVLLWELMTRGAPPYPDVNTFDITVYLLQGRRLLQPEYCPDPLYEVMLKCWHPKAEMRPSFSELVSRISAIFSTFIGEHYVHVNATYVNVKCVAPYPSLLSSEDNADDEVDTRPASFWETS

As a reminder, the IC50 is the concentration that gives 50% inhibition. With `O=c1ccc(=O)c2c1c1c(=O)c3ccccc3c1n2Cc1ccccc1` [Compound 6c, 5-Benzyl 5,6,9,10-tetrahydroindeno[1,2-b]indole-6,9,10-trione], the IC50 at VEGF-R2 (setting [1]) was 3.3 µM; on VEGF-R3 (setting [2]), 7.5 µM; on COT (setting [3]), 4.4 µM; at PLK1 (setting [4]), above 10 µM; at Aurora-A (setting [5]), above 10 µM; at MET (setting [6]) it was above 10 µM. The IC50 is 3.9 µM on SAK (setting [7]), above 10 µM at AKT1 (setting [8]), above 10 µM on FAK (setting [9]) and 6.5 µM at INS-R (setting [10]).
Consider `CC(C)n1c2c(c3c1-c1ccccc1C3=O)C(=O)CCC2` [Compound 4b, 5-Isopropyl-5,6,7,8-tetrahydroindeno[1,2-b]indole-9,10-dione], for which the concentration for half-maximal inhibition (IC50) at VEGF-R2, against VEGF-R3, against COT, against PLK1, against Aurora-A and against MET was above 10 µM throughout. For the same compound, the IC50 against SAK, against AKT1, against FAK and against INS-R was above 10 µM each time.
Regarding `CC(C)n1c2c(=O)ccc(=O)c2c2c(=O)c3ccccc3c21` [Compound 6b, 5-Isopropyl-5H-indeno[1,2-b]indole-6,9,10-trione], the IC50 at VEGF-R2 (setting [1]) was 1.9 µM; on VEGF-R3 (setting [2]), 0.96 µM; at COT (setting [3]), 9.3 µM; at PLK1 (setting [4]) it was above 10 µM; at Aurora-A (setting [5]) it was 5.8 µM; at MET (setting [6]), above 10 µM. For the same compound, the IC50 is 1.7 µM on SAK (setting [7]), 9.3 µM on AKT1 (setting [8]), above 10 µM on FAK (setting [9]) and 1.6 µM at INS-R (setting [10]).
